Read-outs that look alike come from different tables or passages of the source.
How the values were obtained:
[1] = system: L. major (FV1) promastigotes; assay: Antipromastigote resazurin assay, L. major (FV1) wild type; type: cell-based, Leishmania major; settings: for EC50 / inhibition of growth at 10000 µM: Leishmania major; for EC50 / antileishmanial activity: secondary dose response; for EC50: L. major (FV1), read-out: EC50 against L. major promastigotes
[2] = molecular target: T1, LmjIPCS (inositol phosphorylceramide synthase from L. major) (Leishmania major, UniProt E9AFX2); assay: biochemical; type: biochemical
T1 sequence (E9AFX2 1-338): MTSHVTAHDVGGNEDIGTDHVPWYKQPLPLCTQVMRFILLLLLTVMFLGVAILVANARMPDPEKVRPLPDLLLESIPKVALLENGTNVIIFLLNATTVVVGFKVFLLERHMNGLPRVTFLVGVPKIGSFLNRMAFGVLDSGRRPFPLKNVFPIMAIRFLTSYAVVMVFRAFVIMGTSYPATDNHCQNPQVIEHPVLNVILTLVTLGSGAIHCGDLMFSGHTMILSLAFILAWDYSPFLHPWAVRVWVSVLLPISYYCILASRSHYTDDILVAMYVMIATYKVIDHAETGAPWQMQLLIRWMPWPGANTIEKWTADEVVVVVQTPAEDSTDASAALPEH

[3] = L. major promastigotes, dose response
[4] = NINDS set screen against L. major promastigotes, single concentration printed as 10mM
[5] = NINDS set screen, single concentration printed as 20mM

## CN1CCN(CCCN2c3ccccc3Sc3ccc(C(F)(F)F)cc32)CC1 [trifluoperazine 16, trifluoperazine, reference compound]
[1]; [3]
  ED50 vs L. major: 7170 µM
[1]
  EC50: > 1 µM
[1]; [4]
  10mM inhibition L. major: 67%
[2]
  20mM inhibition LmjIPCS: 86%
  IC50: 5.03 µM
[2]; secondary dose response
  LmjIPCS inhibition: confirmed

## Cc1cccc(CN2CCN(C(c3ccccc3)c3ccc(Cl)cc3)CC2)c1 (stereo not drawn) [MECLIZINE]
[1]; [4]
  10mM inhibition L. major: <5%
[2]
  20mM inhibition LmjIPCS: 78%

## CCN(CCCc1ccccc1)CCCc1ccccc1 [ALVERINE]
[1]; [4]
  10mM inhibition L. major: <5%
[2]; [5]
  20mM inhibition LmjIPCS: 70%

## CCCCCCCCNC(C)C(O)c1ccc(SC(C)C)cc1 (stereo not drawn) [suloctidil 15, suloctidil, reference compound]
[1]; [3]
  ED50 vs L. major: 1330 µM
[1]
  EC50: > 1 µM
[1]; [4]
  10mM inhibition L. major: 74%
[2]
  IC50: 3.67 µM
[2]; [5]
  20mM inhibition LmjIPCS: 81%
[2]; secondary dose response
  LmjIPCS inhibition: confirmed

## O=C1c2c(O)cccc2Cc2cccc(O)c21 [ANTHRALIN]
[1]; [4]
  10mM inhibition L. major: <5%
[2]; [5]
  20mM inhibition LmjIPCS: 70%

## CN(C)CCC=C1c2ccccc2CCc2ccccc21 [AMITRIPTYLINE]
[1]; [4]
  10mM inhibition L. major: <5%
[2]
  20mM inhibition LmjIPCS: 82%

## C=CC1=C(C)c2cc3[nH]c(cc4nc(cc5[nH]c(cc1n2)c(C)c5CCC(=O)O)C(CCC(=O)O)=C4C)c(C)c3C=C [PROTOPORPHYRIN IX]
[1]; [4]
  10mM inhibition L. major: <5%
[2]; [5]
  20mM inhibition LmjIPCS: 77%

## TANNIC ACID
[1]; [4]
  10mM inhibition L. major: <5%
[2]
  20mM inhibition LmjIPCS: 91%

## CC(CN1c2ccccc2Sc2ccccc21)N(C)C (stereo not drawn) [PROMETHAZINE]
[1]; [4]
  10mM inhibition L. major: <5%
[2]; [5]
  20mM inhibition LmjIPCS: 78%

## COc1ccccc1OCCNCC(O)COc1cccc2[nH]c3ccccc3c12 (stereo not drawn) [CARVEDILOL]
[1]; [4]
  10mM inhibition L. major: <5%
[2]
  20mM inhibition LmjIPCS: 73%

## CCCCC(CC)CN1CN(CC(CC)CCCC)CC(C)(N)C1 (stereo not drawn) [HEXETIDINE]
[1]; [4]
  10mM inhibition L. major: <5%
[2]; [5]
  20mM inhibition LmjIPCS: 85%

## COC1=C[C@@H](C)[C@@H]2C[C@H]3OC(=O)C[C@H]4C(C)=C(OC)C(=O)[C@H]([C@@]2(C)C1=O)[C@@]34C [QUASSIN]
[1]; [4]
  inhibition of growth at 10000 µM: < 5%
[2]; [5]
  20mM inhibition LmjIPCS: 70%

## Cc1nnc(NS(=O)(=O)c2ccc(N)cc2)s1 [sulfamethizole 14, sulfamethizole, reference compound]
[1]; [3]
  ED50 vs L. major: 39600 µM
[1]; L. major promastigotes
  antileishmanial activity: poor antileishmanial activity
[1]; [4]
  10mM inhibition L. major: 68%
[2]
  20mM inhibition LmjIPCS: 77%
  IC50: > 100 µM
  IC50 against LmjIPCS: could not be determined

## CC(C)CC(N(C)C)C1(c2ccc(Cl)cc2)CCC1 (stereo not drawn) [SIBUTRAMINE]
[1]; [4]
  10mM inhibition L. major: <5%
[2]
  20mM inhibition LmjIPCS: 74%

## CCOC(=O)C1=C(COCCN)NC(C)=C(C(=O)OC)C1c1ccccc1Cl (stereo not drawn) [amlodipine 2, amlodipine, reference compound]
[1]; [3]
  ED50 vs L. major: 1910 µM
[1]
  EC50: > 1 µM
[1]; [4]
  10mM inhibition L. major: 62%
[2]
  20mM inhibition LmjIPCS: 80%
  IC50: 3 µM
[2]; secondary dose response
  LmjIPCS inhibition: confirmed

## CCN1C[C@]2(COC)[C@H](O)C[C@H](OC)[C@@]34[C@@H]5C[C@@]6(O)[C@H](OC(=O)c7ccccc7)[C@@H]5[C@@](OC(C)=O)([C@@H]([C@H](OC)[C@H]23)[C@@H]14)[C@@H](O)[C@@H]6OC [ACONITINE]
[1]; [4]
  10mM inhibition L. major: <5%
[2]
  20mM inhibition LmjIPCS: 97%

## CCCc1cc(=O)[nH]c(=S)[nH]1 [PROPYLTHIOURACIL]
[1]
  10mM inhibition L. major: <5%
[2]
  20mM inhibition LmjIPCS: 73%

## CCCCOc1ccc(OCCCN2CCOCC2)cc1 [PRAMOXINE]
[1]; [4]
  10mM inhibition L. major: <5%
[2]
  20mM inhibition LmjIPCS: 71%

## CC1=C2C(=CO[C@H](C)[C@H]2C)C(O)=C(C(=O)O)C1=O [CITRININ]
[1]; [4]
  10mM inhibition L. major: <5%
[2]
  20mM inhibition LmjIPCS: 76%

## CN(C)CCCN1c2ccccc2Sc2ccc(Cl)cc21 [chlorpromazine 3, chlorpromazine, reference compound]
[1]; [3]
  ED50 vs L. major: 9800 µM
[1]
  EC50: > 1 µM
[1]; [4]
  10mM inhibition L. major: 76%
[2]
  20mM inhibition LmjIPCS: 88%
  IC50: 4.7 µM
[2]; secondary dose response
  LmjIPCS inhibition: confirmed

## C=C[C@H]1C[N@@]2CC[C@H]1C[C@H]2[C@H](O)c1ccnc2ccc(OC)cc12 [QUININE]
[1]; [4]
  10mM inhibition L. major: <5%
[2]
  20mM inhibition LmjIPCS: 70%

## CCc1nc(N)nc(N)c1-c1ccc(Cl)cc1 [PYRIMETHAMINE]
[1]; [4]
  10mM inhibition L. major: <5%
[2]; [5]
  20mM inhibition LmjIPCS: 77%

## CC(C)=CCc1c2c(c3occ(-c4ccc(O)c(O)c4)c(=O)c3c1O)C=CC(C)(C)O2 [POMIFERIN]
[1]; [4]
  10mM inhibition L. major: <5%
[2]; [5]
  20mM inhibition LmjIPCS: 73%

## CCC(=O)O[C@H]1CC[C@H]2[C@@H]3CCc4cc(O)ccc4[C@H]3CC[C@]12C [ESTRADIOL PROPIONATE]
[1]; [4]
  10mM inhibition L. major: <5%
[2]; [5]
  20mM inhibition LmjIPCS: 74%

## NC[C@@H]1O[C@H](O[C@H]2[C@@H](O)[C@H](O[C@@H]3[C@@H](O)[C@H](N)C[C@H](N)[C@H]3O[C@H]3O[C@H](CN)[C@@H](O)[C@H](O)[C@H]3N)O[C@@H]2CO)[C@H](N)[C@@H](O)[C@@H]1O [NEOMYCIN]
[1]; [4]
  10mM inhibition L. major: <5%
[2]; [5]
  20mM inhibition LmjIPCS: 88%

## CN1CCc2c(c3ccccc3n2Cc2ccccc2)C1 [MEBHYDROLIN]
[1]; [4]
  10mM inhibition L. major: <5%
[2]; [5]
  20mM inhibition LmjIPCS: 72%

## N=C1C=CC(=C(c2ccc(N)cc2)c2ccc(N)cc2)C=C1 [pararosaniline 8, pararosaniline]
[1]; [3]
  ED50 vs L. major: 9780 µM
[1]; L. major promastigotes
  antileishmanial activity: poor antileishmanial activity
[1]; [4]
  10mM inhibition L. major: 75%
[2]
  20mM inhibition LmjIPCS: 78%
[2]; dose response, read-out: IC50 vs LmjIPCS
  IC50: > 100 µM
[2]; secondary dose response, commercially sourced samples
  IC50 against LmjIPCS: could not be determined

## Clc1ccc(COC(Cn2ccnc2)c2ccc(Cl)cc2Cl)c(Cl)c1 (stereo not drawn) [MICONAZOLE]
[1]
  10mM inhibition L. major: <5%

## CC(C)NCC(O)COc1cccc2ccccc12 (stereo not drawn) [propranolol 12, propranolol, reference compound]
[1]
  10mM inhibition L. major: 84%
  ED50 vs L. major: 4910 µM

## [H]/N=C(/NCCCCC)N/N=C/c1c[nH]c2ccc(OC)cc12 [TEGASEROD]
[1]; [4]
  inhibition of growth at 10000 µM: < 5%
[2]; [5]
  20mM inhibition LmjIPCS: 71%

## CNCCC=C1c2ccccc2CCc2ccccc21 [NORTRIPTYLINE]
[1]
  10mM inhibition L. major: <5%
[2]
  20mM inhibition LmjIPCS: 81%

## CN(C)CCCN1c2ccccc2CCc2ccccc21 [IMIPRAMINE]
[1]; [4]
  10mM inhibition L. major: <5%

## CN1[C@@H]2CC[C@H]1C[C@@H](OC(c1ccccc1)c1ccccc1)C2 [BENZTROPINE]
[1]
  10mM inhibition L. major: <5%

## CN(C)CCCN1c2ccccc2Sc2ccccc21 [PROMAZINE]
[1]; [4]
  10mM inhibition L. major: <5%
[2]
  20mM inhibition LmjIPCS: 77%

## O=c1[nH]c2ccccc2n1C1CCN(CCCC(c2ccc(F)cc2)c2ccc(F)cc2)CC1 [pimozide 10, pimozide, reference compound]
[1]; [3]
  ED50 vs L. major: 22900 µM
[1]
  EC50: > 1 µM
[1]; [4]
  10mM inhibition L. major: 56%
[2]
  20mM inhibition LmjIPCS: 77%
  IC50: 4.14 µM
[2]; secondary dose response
  LmjIPCS inhibition: confirmed

## CC(NCCC(c1ccccc1)c1ccccc1)c1ccccc1 (stereo not drawn) [fendiline 6, fendiline, reference compound]
[1]; [3]
  ED50 vs L. major: 7640 µM
[1]
  EC50: > 1 µM
[1]; [4]
  10mM inhibition L. major: 74%
[2]
  IC50: 4.22 µM
[2]; [5]
  20mM inhibition LmjIPCS: 71%
[2]; secondary dose response
  LmjIPCS inhibition: confirmed

## CO[C@]12C[C@@H](COC(=O)c3cncc(Br)c3)CN(C)[C@@H]1Cc1cn(C)c3cccc2c13 [NICERGOLINE]
[1]; [4]
  10mM inhibition L. major: <5%
[2]
  20mM inhibition LmjIPCS: 80%

## GINKGOLIC ACID
[1]; [4]
  10mM inhibition L. major: <5%
[2]
  20mM inhibition LmjIPCS: 73%

## CN[C@H]1CC[C@@H](c2ccc(Cl)c(Cl)c2)c2ccccc21 [sertraline 13, sertraline, reference compound]
[1]
  ED50 vs L. major: 14580 µM

## CCCC1O[C@@H]2C[C@H]3[C@@H]4CCC5=CC(=O)C=C[C@]5(C)[C@H]4[C@@H](O)C[C@]3(C)[C@]2(C(=O)CO)O1 (stereo partly drawn) [BUDESONIDE]
[1]; [4]
  10mM inhibition L. major: <5%
[2]; [5]
  20mM inhibition LmjIPCS: 79%
